Data from patent US6509328B1, “Glutamate receptor antagonists” (Hoffmann-La Roche Inc., priority 1999, dated 2003).

melting point | SMILES
248 to 251 °C (dec.) | Cc1nc(-c2cccc(C3=Nc4ccc(-c5ccc(F)cc5)cc4NC(=O)C3)c2)sc1C(=O)NCCO [Example 162, 2-{3-[7-(4-Fluoro-phenyl)-4-oxo-4,5-dihydro-3H-benzo [b][1,4]diazepin-2-yl]-phenyl}-4-methyl-thiazole-5-carboxylic Acid (2-hydroxy-ethyl)-amide]
188 °C | Cc1cn(-c2cccc(C3=Nc4ccc(-c5ccc(F)cc5)cc4NC(=O)C3)c2)c(C)n1 [Example 89, 4-[3-(2,4-Dimethyl-imidazol-1-yl)-phenyl]-8-(4-fluoro-phenyl)-1,3-dihydro-benzo[b][1,4]diazepin-2-one]
220 to 225 °C (dec.) | O=C1CC(c2sccc2Cl)=Nc2ccc(-c3ccccn3)cc2N1 [Example 23, 4-(3-Chloro-thiophen-2-yl)-8-pyridin-2-yl-1,3-dihydro-benzo[b][1,4]diazepin-2-one]
92 to 95 °C (dec.) | N#Cc1cccc(C2=Nc3ccc(C4=CCN(S(=O)(=O)c5ccccc5)CC4)cc3NC(=O)C2)c1 [Example 45, 3-[7-(1-Benzenesulfonyl-1,2,3,6-tetrahydro-pyridin-4-yl)-4-oxo-4,5-dihydro-3H-benzo [b][1,4]diazepin-2-yl]-benzonitrile]
207 °C (dec.) | N#Cc1cccc(C2=Nc3ccc(C(=O)c4ccccc4)cc3NC(=O)C2)c1 [Example 36, 3-(7-Benzoyl-4-oxo-4,5-dihydro-3H-benzo [b][1,4]diazepin-2-yl)-benzonitrile]
240 to 244 °C (dec.) | N#Cc1cccc(C2=Nc3ccc(-c4ccccc4Cl)cc3NC(=O)C2)c1 [Example 33, 3-[7-(2-Chloro-phenyl)-4-oxo-4,5-dihydro-3H-benzo [b][1,4]diazepin-2-yl]-benzonitrile]
> 250 °C (dec.) | NC(=O)c1cccc(C2=Nc3ccc(C#Cc4ccccc4)cc3NC(=O)C2)c1 [Example 148, 3-(4-Oxo-7-phenylethynyl-4,5-dihydro-3H-benzo [b][1,4]diazepin-2-yl)-benzamide]
195 °C (dec.) | O=C1CC(c2cccc(C(F)(F)F)c2)=Nc2ccc(-c3ccc(OCc4ccccc4)nc3)cc2N1 [Example 42, 8-(6-Benzyloxy-pyridin-3-yl)-4-(3-trifluoromethyl-phenyl)-1,3-dihydro-benzo [b][1,4]diazepin-2-one]
242 to 245 °C (dec.) | Cc1ccc(-c2ccc3c(c2)NC(=O)CC(c2cccc(C#N)c2)=N3)cc1 [Example 22, 3-(4-Oxo-7-p-tolyl-4,5-dihydro-3H-benzo[b][1,4]diazepin-2-yl)-benzonitrile]
229 °C | Cc1cn(-c2nc(C3=Nc4ccc(-c5ccccc5F)cc4NC(=O)C3)cs2)cn1 [Example 106, 8-(2-Fluoro-phenyl)-4-[2-(4-methyl-imidazol-1-yl)-thiazol-4-yl]-1,3-dihydro-benzo[b][1,4]diazepin-2-one]
> 250 °C (dec.) | N#Cc1cccc(C2=Nc3ccc(-c4cccs4)cc3NC(=O)C2)c1 [Example 24, 3-(4-Oxo-7-thiophen-2-yl-4,5-dihydro-3H-benzo[b][1,4]diazepin-2-yl)-benzonitrile]
232 to 234 °C (dec.) | NC(=S)c1cccc(C2=Nc3ccc(-c4ccccc4F)cc3NC(=O)C2)c1 [Example 150, 3-[7-(2-Fluoro-phenyl)-4-oxo-4,5-dihydro-3H-benzo[b][1,4]diazepin-2-yl]-thiobenzamide]
233 °C (dec.) | O=C1CC(c2ccsc2)=Nc2ccc(-c3ccccc3)cc2N1 [Example 29, 8-Phenyl-4-thiophen-3-yl-1,3-dihydro-benzo [b][1,4]diazepin-2-one]
> 200 °C (dec.) | N#Cc1cccc(C2=Nc3ccc(-c4ccncc4)cc3NC(=O)C2)c1 [Example 44, 3-(4-Oxo-7-pyridin-4-yl-4,5-dihydro-3H-benzo[b][1,4]diazepin-2-yl)-benzonitrile]
168 to 172 °C (dec.) | CN1CCN(C(=O)c2cccc(C3=Nc4ccc(C#Cc5ccccc5)cc4NC(=O)C3)c2)CC1 [Example 147, 4-[3-(4-Methyl-piperazine-1-carbonyl)-phenyl]-8-phenylethynyl-1,3-dihydro-benzo[b][1,4]diazepin-2-one]
247 to 248 °C (dec.) | Cc1ccccc1-c1ccc2c(c1)NC(=O)CC(c1sccc1Cl)=N2 [Example 34, 4-(3-Chloro-thiophen-2-yl)-8-o-tolyl-1,3-dihydro-benzo [b][1,4]diazepin-2-one]
240 to 243 °C (dec.) | COc1cccc(-c2ccc3c(c2)NC(=O)CC(c2cccc(C#N)c2)=N3)c1 [Example 39, 3-[7-(3-Methoxy-phenyl)-4-oxo-4,5-dihydro-3H-benzo [b][1,4]diazepin-2-yl]-benzonitrile]
232 to 235 °C | N#Cc1cccc(C2=Nc3ccc(-c4cccc(F)c4)cc3NC(=O)C2)c1 [Example 96, 3-[7-(3-Fluoro-phenyl)-4-oxo-4,5-dihydro-3H-benzo [b][1,4]diazepin-2-yl]-benzonitrile]

melting point | SMILES
172 to 175 °C | CCOC(=O)c1csc(-c2cccc(C3=Nc4ccc(-c5ccccc5F)cc4NC(=O)C3)c2)n1 [Example 154, 2-{3-[7-(2-Fluoro-phenyl)-4-oxo-4,5-dihydro-3H-benzo [b][1,4]diazepin-2-yl]-phenyl}-thiazole-4-carboxylic Acid Ethyl Ester]
235 °C | CS(=O)(=O)N1CC=C(C#Cc2ccc3c(c2)NC(=O)CC(c2cccc(C#N)c2)=N3)CC1 [Example 142, 3-[7-(1-Methanesulfonyl-1,2,3,6-tetrahydro-pyridin-4-ylethynyl)-4-oxo-4,5-dihydro-3H-benzo[b][1,4]diazepin-2-yl]-benzonitrile]
236 to 238 °C (dec.) | CCOC(=O)c1csc(-c2cccc(C3=Nc4ccc(-c5ccc(F)cc5)cc4NC(=O)C3)c2)n1 [Example 153, 2-{3-[7-(4-Fluoro-phenyl)-4-oxo-4,5-dihydro-3H-benzo [b][1,4]diazepin-2-yl]-phenyl}-thiazole-4-carboxylic Acid Ethyl Ester]
219 °C | CC(C)(C)C(=O)N1CC=C(C#Cc2ccc3c(c2)NC(=O)CC(c2cccc(C#N)c2)=N3)CC1 [Example 143, 3-{7-[1-(2,2-Dimethyl-propionyl)-1,2,3,6-tetrahydro-pyridin-4-ylethynyl]-4-oxo-4,5-dihydro-3H-benzo [b][1,4]diazepin-2-yl}-benzonitrile]
220 to 222 °C (dec.) | CC(=O)N1CC=C(c2ccc3c(c2)NC(=O)CC(c2cccc(C#N)c2)=N3)CC1 [Example 47, 3-[7-(1-Acetyl-1,2,3,6-tetrahydro-pyridin-4-yl)-4-oxo-4,5-dihydro-3H-benzo [b][1,4]diazepin-2-yl]-benzonitrile]
238 to 240 °C (dec.) | CCOC(=O)c1csc(-c2cc(C3=Nc4ccc(-c5ccc(F)cc5)cc4NC(=O)C3)ccn2)n1 [Example 155, 2-{4-[7-(4-Fluoro-phenyl)-4-oxo-4,5-dihydro-3H-benzo[b][1,4]diazepin-2-yl]-pyridin-2-yl}-thiazole-4-carboxylic Acid Ethyl Ester]
110 °C | N#Cc1cccc(C2=Nc3ccc(C#CC4=CC(=O)CCC4)cc3NC(=O)C2)c1 [Example 144, 3-[4-Oxo-7-(3-oxo-cyclohex-1-enylethynyl)-4,5-dihydro-3H-benzo [b][1,4]diazepin-2-yl]-benzonitrile]
235 to 238 °C (dec.) | N#Cc1cccc(C2=Nc3ccc(C#Cc4cccs4)cc3NC(=O)C2)c1 [Example 50, 3-(4-Oxo-7-thiophen-2-ylethynyl-4,5-dihydro-3H-benzo [b][1,4]diazepin-2-yl)-benzonitrile]
173 to 178 °C | CC(C)c1ccc2c(c1)NC(=O)CC(c1ccnc(C#N)c1)=N2 [Example 105, 4-(7-Isopropyl-4-oxo-4,5-dihydro-3H-benzo [b][1,4]diazepin-2-yl)-pyridine-2-carbonitrile]
240 °C | N#Cc1cccc(C2=Nc3ccc(-c4cccc(F)c4F)cc3NC(=O)C2)c1 [Example 51, 3-[7-(2,3-Difluoro-phenyl)-4-oxo-4,5-dihydro-3H-benzo [b][1,4]diazepin-2-yl]-benzonitrile]
212 to 214 °C | N#Cc1cccc(C2=Nc3ccc(CCc4ccccc4)cc3NC(=O)C2)c1 [Example 108, 3-(4-Oxo-7-phenethyl-4,5-dihydro-3H-benzo[b][1,4]diazepin-2-yl)-benzonitrile]
228 °C (dec.) | O=C1CC(c2sccc2Cl)=Nc2ccc(-c3ccccc3)cc2N1 [Example 38, 4-(3-Chloro-thiophen-2-yl)-8-phenyl-1,3-dihydro-benzo [b][1,4]diazepin-2-one]
232 to 235 °C | CS(=O)(=O)Nc1cccc(C2=Nc3ccc(-c4ccc(F)cc4)cc3NC(=O)C2)c1 [Example 73, N-{3-[7-(4-Fluoro-phenyl)-4-oxo-4,5-dihydro-3H-benzo [b][1,4]diazepin-2-yl]-phenyl}-methanesulfonamide]
236 to 237 °C (dec.) | COc1ccc(-c2ccc3c(c2)NC(=O)CC(c2cccc(C#N)c2)=N3)cc1 [Example 6, 3-[7-(4-Methoxy-phenyl)-4-oxo-4,5-dihydro-3H-benzo[b][1,4]diazepin-2-yl]-benzonitrile]
229 °C | Cc1cn(-c2nc(C3=Nc4ccc(-c5ccc(F)cc5)cc4NC(=O)C3)cs2)cn1 [Example 107, 8-(4-Fluoro-phenyl)-4-[2-(4-methyl-imidazol-1-yl)-thiazol-4-yl]-1,3-dihydro-benzo[b][1,4]diazepin-2-one]
239 °C | N#Cc1ccc(F)c(C2=Nc3ccc(-c4ccccc4F)cc3NC(=O)C2)c1 [Example 103, 4-Fluoro-3-[7-(2-fluoro-phenyl)-4-oxo-4,5-dihydro-3H-benzo [b][1,4]diazepin-2-yl]-benzonitrile]
207 to 208 °C | COc1ccc(-c2ccc3c(c2)NC(=O)CC(c2cccc(-n4ccnc4)c2)=N3)cc1 [Example 61, 4-(3-Imidazol-1-yl-phenyl)-8-(4-methoxy-phenyl)-1,3-dihydro-benzo [b][1,4]diazepin-2-one]
240 °C (dec.) | N#Cc1ccc(-c2ccc3c(c2)NC(=O)CC(c2cccc(C#N)c2)=N3)cc1 [Example 65, 3-[7-(4-Cyano-phenyl)-4-oxo-4,5-dihydro-3H-benzo [b][1,4]diazepin-2-yl]-benzonitrile]
